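Protocol summary: plate cells (96-well), add compound at 5 concentrations, incubate 48 h, interpolate endpoints linearly. TGI marks complete inhibition of growth.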 Bounds are passed on as bounds.

Test systems include HCC-2998 colon; SK-OV-3 ovarian; CCRF-CEM leukemia; SNB-75 CNS; SK-MEL-28 melanoma; K-562 leukemia; HOP-92 NSCLC; RXF 393 renal; SNB-19 CNS; MDA-N; SF-295 CNS; NCI-H23 lung; RPMI-8226 leukemia; UO-31 renal.
Common to all, as to assay: DTP human tumour cell line panel, 48 h

Broadly, the TGI is the concentration at which net growth stops. Lower therefore signals greater sensitivity of the cells. Regarding `COc1ccc(N2CCN(Cc3c(C(C)=O)[n+](=O)c4ccccc4n3[O-])CC2)cc1`, the TGI in the test with HCC-2998 colon, with SK-OV-3 ovarian, in the test on CCRF-CEM leukemia, in the test with SNB-75 CNS, in the test with SK-MEL-28 melanoma and in the test on K-562 leukemia was greater than 100 µM in each case. Besides, the TGI in the test with HOP-92 NSCLC was greater than 100 µM; with RXF 393 renal, 83.4 µM; with SNB-19 CNS it was greater than 100 µM; in the test on MDA-N, greater than 100 µM; in the test on SF-295 CNS, greater than 100 µM; with NCI-H23 lung, greater than 100 µM. In addition, the TGI in the test with RPMI-8226 leukemia and in the test on UO-31 renal was greater than 100 µM throughout.

Regarding `CC1(C)CCCCCC(C)(CCCCCCCCCCCO)C1=O` (stereo not given), the TGI was found to be 39.9 µM in the test with HCC-2998 colon; 31.7 µM in the test on SK-OV-3 ovarian; 29.7 µM in the test with CCRF-CEM leukemia; 29.9 µM with SNB-75 CNS; 32 µM in the test with SK-MEL-28 melanoma; 31 µM in the test on K-562 leukemia. Also, the TGI in the test on HOP-92 NSCLC was 31.2 µM; in the test on RXF 393 renal, 31.4 µM; in the test with SNB-19 CNS, 31.2 µM; in the test with MDA-N, 32.3 µM; with SF-295 CNS, 29.6 µM; in the test with NCI-H23 lung, 30.3 µM. In addition, the TGI was found to be 47.2 µM in the test on RPMI-8226 leukemia and 30.9 µM with UO-31 renal.

In the case of `O=NNc1cnccn1`, the TGI in the test with HCC-2998 colon was greater than 1250 µM; in the test with SK-OV-3 ovarian, greater than 330 µM; in the test with CCRF-CEM leukemia, greater than 1250 µM; with SNB-75 CNS, greater than 1250 µM; in the test with SK-MEL-28 melanoma, greater than 1250 µM; in the test on K-562 leukemia, greater than 1250 µM. For the same compound, the TGI in the test with HOP-92 NSCLC, in the test with RXF 393 renal, in the test with SNB-19 CNS, with MDA-N, in the test with SF-295 CNS and in the test with NCI-H23 lung was greater than 1250 µM each time. For the same compound, the TGI with RPMI-8226 leukemia and in the test with UO-31 renal was greater than 1250 µM throughout.

In the case of `NC1=NN(c2ccccc2)C2(c3ccncc3C(=O)O)C1C(N)=NN2c1ccccc1` (stereo not given), the TGI in the test on HCC-2998 colon, in the test with SK-OV-3 ovarian, in the test with CCRF-CEM leukemia, with SNB-75 CNS, with SK-MEL-28 melanoma and with K-562 leukemia was greater than 100 µM each time. Further, the TGI in the test with HOP-92 NSCLC, in the test with RXF 393 renal, in the test on SNB-19 CNS, in the test with MDA-N, with SF-295 CNS and with NCI-H23 lung was greater than 100 µM throughout. For the same compound, the TGI in the test on RPMI-8226 leukemia and in the test on UO-31 renal was greater than 100 µM in each case.

`O=C1c2ccccc2C(=O)c2c1oc(=O)c1ccccc21`: the concentration for total growth inhibition (TGI) with HCC-2998 colon was 6.96 µM; in the test with SK-OV-3 ovarian, greater than 25 µM; with CCRF-CEM leukemia, 16 µM; in the test on SNB-75 CNS, 12.3 µM; with SK-MEL-28 melanoma, 17 µM; in the test with K-562 leukemia it was 17.9 µM. Further, the TGI in the test with HOP-92 NSCLC is 11.9 µM; in the test on RXF 393 renal it was 9.62 µM; in the test with SNB-19 CNS, greater than 25 µM; in the test with MDA-N, 5.7 µM; with SF-295 CNS, 7.41 µM; in the test with NCI-H23 lung, 10.6 µM. Also, the TGI was 19.2 µM in the test on RPMI-8226 leukemia and 11.4 µM in the test on UO-31 renal.

As to `COCC(=O)OC1CCn2c1nc1c2C(=O)C(C)=C(NC(C)=O)C1=N` (stereo not given), the TGI amounted to 27.7 µM in the test on HCC-2998 colon; 37.5 µM with SK-OV-3 ovarian; 8.27 µM in the test with CCRF-CEM leukemia; 29 µM with SNB-75 CNS; 10.6 µM in the test with SK-MEL-28 melanoma; 4.59 µM in the test on K-562 leukemia. The TGI is 9.11 µM in the test with HOP-92 NSCLC; 6.47 µM with RXF 393 renal; 38.1 µM with SNB-19 CNS; 3.23 µM in the test with MDA-N; 30.4 µM in the test on SF-295 CNS; 23.8 µM with NCI-H23 lung. In addition, the TGI in the test on RPMI-8226 leukemia came out at 6.79 µM; in the test with UO-31 renal it was 24 µM.

With `CC(=O)Nc1ccc(S(=O)(=O)[N-]C2C(=O)c3ccccc3C(=O)C2[n+]2ccccc2)cc1` (stereo not given), the TGI is 43.6 µM in the test on HCC-2998 colon; greater than 100 µM in the test on SK-OV-3 ovarian; 40.5 µM with CCRF-CEM leukemia; 30.1 µM with SNB-75 CNS; 30.1 µM in the test with SK-MEL-28 melanoma; greater than 100 µM in the test with K-562 leukemia. In addition, the TGI in the test on HOP-92 NSCLC came to 33.6 µM; in the test on RXF 393 renal it was 30.4 µM; in the test with SNB-19 CNS it was 27.3 µM; in the test with MDA-N it was 33 µM; in the test on SF-295 CNS, 28.8 µM; in the test on NCI-H23 lung, 21.5 µM. For the same compound, the results for the TGI with RPMI-8226 leukemia and in the test with UO-31 renal were greater than 100 µM and 21.2 µM, respectively.

Turning to `O=Cc1[nH]c(=O)[nH]c(=O)c1CCl`, the TGI was greater than 100 µM in the test with HCC-2998 colon; greater than 100 µM in the test on SK-OV-3 ovarian; greater than 85.8 µM in the test with CCRF-CEM leukemia; 75.6 µM with SNB-75 CNS; greater than 100 µM in the test with SK-MEL-28 melanoma; greater than 100 µM with K-562 leukemia. Moreover, the TGI with HOP-92 NSCLC, with RXF 393 renal, in the test with SNB-19 CNS, in the test with MDA-N, in the test with SF-295 CNS and in the test on NCI-H23 lung was greater than 100 µM in each case. In addition, the TGI in the test on RPMI-8226 leukemia was greater than 72.1 µM; in the test on UO-31 renal it was greater than 100 µM.

Consider `COC(=O)c1cc(-c2ccc(-c3ccc(O)cc3)cc2)cc(-c2ccc(-c3ccc(O)cc3)cc2)c1`, for which the TGI in the test with HCC-2998 colon turned out to be 33 µM; with SK-OV-3 ovarian it was 29.6 µM; in the test on CCRF-CEM leukemia, 31.2 µM; with SNB-75 CNS it was 27.8 µM; with SK-MEL-28 melanoma, 25.7 µM; in the test with K-562 leukemia, 17.6 µM. The TGI with HOP-92 NSCLC stood at 20.9 µM; with RXF 393 renal, 20.9 µM; in the test on SNB-19 CNS, 32.8 µM; in the test with MDA-N, 23 µM; with SF-295 CNS, 20.2 µM; with NCI-H23 lung, 21 µM. Further, the TGI in the test on RPMI-8226 leukemia was 27.5 µM; in the test on UO-31 renal it was 23.6 µM.

Take `O=C(Nc1ccccc1)Nn1c(-c2cccs2)nc2ccc(I)cc2c1=O`: the TGI was found to be 55.3 µM in the test on HCC-2998 colon; 71.2 µM with SK-OV-3 ovarian; 60.8 µM in the test with CCRF-CEM leukemia; 25.6 µM in the test on SNB-75 CNS; 53.6 µM in the test on SK-MEL-28 melanoma; 10.4 µM in the test with K-562 leukemia. In addition, the TGI in the test on HOP-92 NSCLC is 59.7 µM; in the test on RXF 393 renal, greater than 100 µM; with SNB-19 CNS it was greater than 100 µM; in the test with MDA-N it was 74.6 µM; in the test on SF-295 CNS, 98.5 µM; in the test on NCI-H23 lung, greater than 100 µM. Besides, the results for the TGI with RPMI-8226 leukemia and in the test with UO-31 renal were 51.8 µM and 80.3 µM, respectively.

As for `CCOC(=O)/C=C(\C(=O)OCC)n1cnc2c(N)ncnc21`, the TGI in the test with HCC-2998 colon was found to be 30.2 µM; with SK-OV-3 ovarian it was 32 µM; in the test with CCRF-CEM leukemia, 4.51 µM; with SNB-75 CNS it was 26 µM; with SK-MEL-28 melanoma, 27.8 µM; in the test with K-562 leukemia, 5.52 µM. The TGI in the test on HOP-92 NSCLC is 7.12 µM; with RXF 393 renal, 26.4 µM; in the test on SNB-19 CNS it was 30 µM; in the test with MDA-N, 29.3 µM; with SF-295 CNS, 32.1 µM; in the test on NCI-H23 lung it was 31.8 µM. For the same compound, the TGI is 5.4 µM with RPMI-8226 leukemia and 30 µM in the test on UO-31 renal.

For `O=c1c[n+](-c2ccccc2)[nH]o1`, the TGI in the test with HCC-2998 colon, with SK-OV-3 ovarian, in the test on CCRF-CEM leukemia, in the test on SNB-75 CNS, in the test with SK-MEL-28 melanoma and in the test on K-562 leukemia was greater than 100 µM each time. For the same compound, the TGI with HOP-92 NSCLC, in the test with RXF 393 renal, in the test on SNB-19 CNS, in the test on MDA-N, with SF-295 CNS and with NCI-H23 lung was greater than 100 µM in each case. The TGI in the test with RPMI-8226 leukemia and in the test on UO-31 renal was greater than 100 µM in each case.

For `Cc1cc(C)nc(NS(=O)(=O)c2ccc(NNC(=O)c3cccc4c(NNc5ccc(S(=O)(=O)Nc6nc(C)cc(C)n6)cc5)c5ccccc5nc34)cc2)n1`, the TGI in the test on HCC-2998 colon came to 37.7 µM; in the test with SK-OV-3 ovarian it was 87.1 µM; with CCRF-CEM leukemia it was 51.2 µM; in the test on SNB-75 CNS, 52.3 µM; in the test with SK-MEL-28 melanoma it was 48.7 µM; in the test with K-562 leukemia, 52.4 µM. The TGI in the test with HOP-92 NSCLC was determined as 70.3 µM; in the test with RXF 393 renal, 48.7 µM; in the test with SNB-19 CNS it was 72.7 µM; with MDA-N it was 43.1 µM; in the test on SF-295 CNS it was 88.1 µM; in the test on NCI-H23 lung, 51.6 µM. In addition, the TGI with RPMI-8226 leukemia was determined as 64.9 µM; with UO-31 renal, 51.1 µM.

Turning to `O=C1OC2c3ccccc3C(=O)C2(c2ccccc2)N1c1ccccc1` (stereo not given), the TGI in the test on HCC-2998 colon, with SK-OV-3 ovarian, in the test with CCRF-CEM leukemia, with SNB-75 CNS, with SK-MEL-28 melanoma and in the test with K-562 leukemia was greater than 200 µM throughout. The TGI with HOP-92 NSCLC, with RXF 393 renal, in the test on SNB-19 CNS, in the test with MDA-N, in the test on SF-295 CNS and in the test with NCI-H23 lung was greater than 200 µM in each case. Also, the TGI with RPMI-8226 leukemia and in the test with UO-31 renal was greater than 200 µM throughout.

Regarding `COc1cc(C=Nc2ccc(S(N)(=O)=O)cc2)cc(OC)c1`, the TGI with HCC-2998 colon, in the test with SK-OV-3 ovarian, in the test with CCRF-CEM leukemia, in the test on SNB-75 CNS, in the test on SK-MEL-28 melanoma and in the test with K-562 leukemia was greater than 50 µM throughout. Further, the TGI with HOP-92 NSCLC, with RXF 393 renal, with SNB-19 CNS, in the test with MDA-N, in the test on SF-295 CNS and in the test on NCI-H23 lung was greater than 50 µM each time. The TGI in the test on RPMI-8226 leukemia and in the test with UO-31 renal was greater than 50 µM in each case.

These data come from PubChem BioAssay (NCI).
